Source: patent publication US20040039211A1, “Tetrapyrroles” (DUKE UNIVERSITY AND NATIONAL JEWISH MEDICAL AND RESEARCH …, priority 2000, published 2004)

How the values were obtained:
[1] = Degradation by H2O2 followed by uv/vis spectroscopy; assay type: physicochemical
Description: Uv/vis Spectroscopy. […] Also the effects of EDTA, H2O2, and the methanol/water ratio on the stability of the manganese(III) complex were examined. […] 79:699 (1960)). When needed the biliverdin and biliverdin dimethylester as well as their reduced forms bilirubin and bilirubin dimethylester were studied. At μM concentrations, manganese(III) and iron(III) porphyrins are degraded by H2O2 in aqueous solution. pH 7.8 (Batinic-Haberle et al, Inorg. Chem. 38:4011 (1999), Everett et al, J. Trans. Faraday Soc. 49:410 (1953)). […] The reaction was followed in 90/10, v/v methanouaqueous solution at pH^* 7.9. […] The uv/vis spectroscopy indicated degradation via the reduction of biliverdin to bilirubin followed by loss of metal (Gray et al, J. Chem. Soc. 2276 (1961); Kuenzle et al, Biochem. J. 130:1147 (1972); […], Nature 899 (1962)). The interaction of biliverdin and bilirubin with H2O, was also followed in 0.05 M tris buffer, pH 7.8. As observed for its metal complex, biliverdin undergoes reduction by H2O2 via bilirubin. Under pseudo-first order conditions (6 mM to 60 mM H2O2, 60 μM biliverdin), the second-order rate constant was k=3×10^-3 M^-1 s^-1. Bilirubin is more resistant to H2O2 than biliverdin or its metal complex. The disappearance of bilirubin was followed at 435 nm (Gray et al, J. Chem. Soc. 2268 (1961)). Under conditions given above and at 60 mM H2O2, about 40% of the biliverdin and 14% of bilirubin was degraded within 4.4 hours, and about 14% of the complex was degraded inside 80 min.

[2] = tested on: SOD-deficient E. coli JI132; assay: Aerobic growth of SOD-deficient E. coli in minimal medium; assay type: cell-based
Protocol: FIG. 13. […] The 20 mM ethanolic/albumin solution of compound was diluted into the medium. Also the growth of SOD-deficient E. coli was followed in the presence of 0.15% ethanol only (squares).
SOD activity can be monitored in the presence and absence of EDTA using the method of McCord and Fridovich (J. Biol. Chem. 244:6049 (1969)). The efficacy of a mimetic can also be determined by measuring the effect of the mimetic on the aerobic growth of a SOD null E. coli strain versus a parent strain. Specifically, parental E. coli (AB1157) and SOD null E. coli. […]
Effects on E. coli. E. coli strains AB1157 (SOD-proficient, wild type) and JI132 (SOD-deficient, sodAsodB) were obtained from J. A. Imlay (Imlay et al, J. Bacteriol. 169:2967 (1987)). […] Cultures were treated as previously described (Faulkner et al, J. Biol. Chem. 269:23471 (1994); Benov et al, J. Biol. Chem. 273:10313 (1998)). Due to the low water solubility, the compounds were solubilized with albumin in medium at a 1:1 molar ratio. Albumin itself had no effect on growth in the concentration range employed. Since methanol was toxic to the SOD-deficient strain of E. coli even when present in medium at 0.15%, the stock solutions of the compounds were prepared in ethanol.

[3] = SOD activity, xanthine oxidase/cytochrome c method; assay type: biochemical; conditions: for kcat, O2^− dismutation: competition with 10 μM cytochrome c, pH 7.8, 25° C.
Protocol: FIG. 12. […] The v0 is the rate of reduction of 10 μM cytochrome c by O2. The vi is the rate of reduction of cytochome c inhibited by the porphyrin catalyst in the presence of 0.1 mM EDTA in 0.05 M tris buffer at pH 7.8. 40 μM xanthine. ˜2 nM xanthine oxidase at 25° C. The total volume of the assay solution is 3 mL.
SOD Activity. Catalysis of the dismutating of O2 in vitro was followed by the xanthine oxidase/cytochrome c method (McCord et al, J. Biol. Chem. 244:6049 (1969)).
Dismutation of superoxide anion, O2^−. Assays were conducted in 0.05 M aqueous phosphate buffer, pH 7.8, 0.1 mM EDTA, ±15 μg/mL of catalase, ±albumin. Rate constants for the reaction with O2^−were based upon the competition of the compounds with cytochrome c.
Two metallotetrapyrroles were tested for antioxidant activity, in vitro. In particular, the compounds were assayed for their ability to dismutate superoxide in the indirect method that utilizes xanthine and xanthine oxidase to generate superoxide and cytochrome c reduction as indicator of superoxide flux. […] The compounds were also assayed for their ability to prevent lipid peroxidation of rat brain homogenates by iron and ascorbate. The mixture of iron and ascorbate generates reactive oxygen species that oxidize biological lipids and these oxidized lipids can be detected as species that react with thiobarbituric acid (TBARS).
a) SOD activity determined using a xanthine oxidase/cytochrome c assay

[4] = Solubility; assay type: physicochemical

Manganese(III) Biliverdin IX Dimethylester [{Mn^IIIBVDME}2]
fraction degraded by H2O2 ([1]; 60 mM H2O2, inside 80 min): about 14% | second-order rate constant k of H2O2 induced degradation ([1]; 90/10 v/v methanol/aqueous, pH* 7.9, 6 mM to 120 mM H2O2, 15 and 30 μM complex): 0.00064 M⁻¹ s⁻¹ | growth of SOD-deficient E. coli ([2]; 13 μM, after 15 hours, SOD-proficient 100%, SOD-deficient without compound 16%): 50% | growth of SOD-deficient E. coli (in words) ([2]; 0.1 to 13 μM in minimal medium): markedly improved | effect on SOD-deficient E. coli growing under aerobic conditions (in words) ([2]; minimal (five amino acids) medium): significant protection | specific activity (SOD mimetic) [3]: 10,700 units/mg | effect of albumin on SOD-like activity ([3]; 1:1 albumin to compound ratio): no negative effect of albumin was observed | decrease of SOD-like activity in the presence of albumin ([3]; albumin to compound ratio 3): 50% | SOD specific activity ([3]; per manganese, 1 unit = quantity (mg) per 3.0 mL causing 50% inhibition of reduction of 10 μM cytochrome c): 10700 U/mg | kcat, O2^− dismutation ([3]; per manganese): 5.5e+07 M⁻¹ s⁻¹ | kcat, O2^− dismutation ([3]; per manganese, listed as compound of FIG. 2C): 5.5e+07 M⁻¹ s⁻¹ | kcat, O2^− dismutation ([3]; per manganese, listed as ½ {Mn^III/IVBVDME^0/−}2): 5.5e+07 M⁻¹ s⁻¹ | SOD Activity ([3]; xanthine oxidase/cytochrome c assay): 10,700 USOD/mg | solubility in organic solvents ([4]; ethanol, methanol): soluble in ethanol and methanol | solubility in water ([4]; water): ~10^−8 M
